Laboratory results reported in US12162858B2, “Quinoline derivatives as inhibitors of AXL/MER RTK and CSF1R” (QURIENT CO., LTD., priority 2018, dated 2024).
pIC50: −log10 of the molar value.

Target: CSF1R (Homo sapiens, UniProt P07333)
Test: Cellular CSF1R inhibition ELISA (p-CSF1R, M-CSF-induced) using THP-1 cells
Assay type: cell-based
Design: THP-1 cells act as a model for human monocytes; endogenous in cells; host or cells: THP-1
Method in brief: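 THP-1 cells (2×10^5/well, RPMI/10% FBS) were treated with compound, 10 doses in 3-fold steps, for 24 h at 37 °C in 0.2% DMSO final. They were then stimulated 5 min with human M-CSF (10 ng/ml final) and lysed. p-CSF1R was read by sandwich ELISA (HRP/TMB), with a sigmoidal dose-response fit.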

Sequence of CSF1R (P07333 20-972): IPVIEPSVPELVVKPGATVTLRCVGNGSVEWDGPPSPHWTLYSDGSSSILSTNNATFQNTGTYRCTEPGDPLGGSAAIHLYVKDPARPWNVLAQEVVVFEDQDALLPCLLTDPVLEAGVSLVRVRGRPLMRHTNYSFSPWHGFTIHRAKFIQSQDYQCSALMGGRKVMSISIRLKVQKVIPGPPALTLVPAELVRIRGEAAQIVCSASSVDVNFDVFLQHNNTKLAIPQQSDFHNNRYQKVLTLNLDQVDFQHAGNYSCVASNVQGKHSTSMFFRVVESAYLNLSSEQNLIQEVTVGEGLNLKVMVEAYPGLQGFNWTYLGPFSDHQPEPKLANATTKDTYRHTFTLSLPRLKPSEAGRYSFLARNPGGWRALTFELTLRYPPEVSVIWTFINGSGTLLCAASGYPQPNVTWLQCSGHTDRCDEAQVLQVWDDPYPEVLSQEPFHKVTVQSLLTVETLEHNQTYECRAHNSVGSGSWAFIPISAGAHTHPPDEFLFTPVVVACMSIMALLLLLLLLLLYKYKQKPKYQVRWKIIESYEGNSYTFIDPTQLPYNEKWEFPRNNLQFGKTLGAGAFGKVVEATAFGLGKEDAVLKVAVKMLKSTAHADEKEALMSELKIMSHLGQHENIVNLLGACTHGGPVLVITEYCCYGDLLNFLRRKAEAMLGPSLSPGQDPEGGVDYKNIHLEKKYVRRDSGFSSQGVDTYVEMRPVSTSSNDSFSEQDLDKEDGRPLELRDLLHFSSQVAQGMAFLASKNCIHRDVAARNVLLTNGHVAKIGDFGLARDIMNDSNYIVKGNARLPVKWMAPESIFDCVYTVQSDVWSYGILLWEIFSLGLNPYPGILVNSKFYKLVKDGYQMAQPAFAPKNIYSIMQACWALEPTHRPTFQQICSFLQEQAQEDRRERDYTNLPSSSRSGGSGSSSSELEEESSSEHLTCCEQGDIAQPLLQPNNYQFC

| Structure (SMILES) | pIC50 |
| --- | --- |
| COc1cc2nccc(Oc3ccc(NC(=O)c4nn(CCN)cc4OCC(F)(F)F)cc3C)c2cc1OC [Compound 82] | ≤ 6.00 |
| COc1cc2nccc(Oc3ccc(NC(=O)c4nn(C5CC5)cc4OCC(F)(F)F)nc3)c2cc1OC [Compound 5] | > 6.30 |
| COc1cc2nccc(Oc3ccc(NC(=O)c4nn(C5CCOC5)cc4OCC(F)(F)F)cc3C)c2cc1OC (stereo not shown) [Compound 85] | 6.00 to 6.30 |
| COc1cc2nccc(Oc3ccc(NC(=O)c4nn(C5CCOCC5)cc4OCC(F)(F)F)nc3)c2cc1OC [Compound 90] | > 6.30 |
| COc1cc2nccc(Oc3ccc(NC(=O)c4nn(CC(C)C)cc4OCC(F)(F)F)cc3)c2cc1OC [Compound 87] | 6.00 to 6.30 |
| COc1cc2nccc(Oc3ccc(NC(=O)c4nn(CC(C)O)cc4OCC(F)(F)F)cc3F)c2cc1OC (stereo not shown) [Compound 80] | ≤ 6.00 |
| COCCn1cc(OCC(F)(F)F)c(C(=O)Nc2ccc(Oc3ccnc4cc(OC)c(OC)cc34)c(C)c2)n1 [Compound 84] | 6.00 to 6.30 |
| COc1cc2nccc(Oc3ccc(NC(=O)c4nn(CCC5CCCC5)cc4OCC(F)(F)F)nc3)c2cc1OC [Compound 93] | > 6.30 |
| COc1cc2nccc(Oc3ccc(NC(=O)c4nn(C5CCNC5)cc4OCC(F)(F)F)cc3C)c2cc1OC (stereo not shown) [Compound 81] | ≤ 6.00 |
| COc1cc2nccc(Oc3ccc(NC(=O)c4nn(C5CCNC5)cc4OCC(F)(F)F)cc3F)c2cc1OC (stereo not shown) [Compound 78] | ≤ 6.00 |
| COc1cc2nccc(Oc3ccc(NC(=O)c4nn(C5CCN(C)C5)cc4OCC(F)(F)F)nc3)c2cc1OC (stereo not shown) [Compound 91] | > 6.30 |
| COc1cc2nccc(Oc3ccc(NC(=O)c4nn(C5CCN(C)C5)cc4OCC(F)(F)F)c(F)c3)c2cc1OC (stereo not shown) [Compound 94] | ≤ 6.00 |
| COc1cc2nccc(Oc3ccc(NC(=O)c4nn(C5CCOC5)cc4OCC(F)(F)F)c(F)c3)c2cc1OC (stereo not shown) [Compound 77] | ≤ 6.00 |
| COc1cc2nccc(Oc3ccc(NC(=O)c4nn(CC(C)O)cc4OCC(F)(F)F)cc3C)c2cc1OC (stereo not shown) [Compound 83] | > 6.30 |
| COc1cc2nccc(Oc3ccc(NC(=O)c4nn(CC(C)O)cc4OCC(F)(F)F)cc3)c2cc1OC (stereo not shown) [Compound 89] | 6.00 to 6.30 |
| COc1cc2nccc(Oc3ccc(NC(=O)c4nn(CC5COC5)cc4OCC(F)(F)F)c(F)c3)c2cc1OC [Compound 95] | ≤ 6.00 |
| COc1cc2nccc(Oc3ccc(NC(=O)c4nn(CCN)cc4OCC(F)(F)F)cc3F)c2cc1OC [Compound 79] | ≤ 6.00 |
| COc1cc2nccc(Oc3ccc(NC(=O)c4nn(C5CCNC5)cc4OCC(F)(F)F)cc3)c2cc1OC (stereo not shown) [Compound 86] | ≤ 6.00 |
| COc1cc2nccc(Oc3ccc(NC(=O)c4nn(CCN)cc4OCC(F)(F)F)cc3)c2cc1OC [Compound 88] | ≤ 6.00 |
